# Test system: estrogen (ER) receptor
# Assay: ER transcriptional activation, T47D-KBluc cells
# Format: cell-based
# Settings: 100 pM to 10 μM
# Procedure: HFPO-DA was assessed for agonism and antagonism of transcriptional activation for estrogen (ER), androgen (AR), and glucocorticoid receptors (GR). Method details for in vitro transactivation assays for ER ([Wilson et al. 2004a]), AR ([Hartig et al. 2002], [2007]), and GR ([Conley et al. 2017]; [Medlock Kakaley et al. 2018]) have been previously reported. Briefly, for ER activity we utilized the stably transfected T47D-KBluc cell line [publicly available via American Type Culture Collection (ATCC); CRL-2865] according to protocols provided by ATCC with the modification of Dulbecco’s Modified Eagle Media (DMEM) as the cell culture media instead of Roswell Park Memorial Institute (RPMI) media. […] All assays were run in 96-well plates and luminescence was detected using a BMG Fluostar Omega luminometer (BMG Labtech) following 24-h exposure. […] Cellular cytotoxicity across the dosing range was determined for CV-1 cells utilizing the 3-(4,5-dimethylthiazol-2-yl)-2,5-diphenyltetrazolium bromide (MTT) dye ([Mosmann 1983]). HFPO-DA was analyzed using n=2–3 biological replicate assay plates (i.e., unique cell passages) with four technical replicates per treatment per plate. […]
smiles,measurement,value
"O=C(O)C(F)(OC(F)(F)C(F)(F)C(F)(F)F)C(F)(F)F (stereo not shown) [HFPO-DA, Hexafluoropropylene oxide dimer acid]",estrogenic activity (agonism or antagonism),did not display any estrogenic activity

# — PMC6768323, “Adverse Maternal, Fetal, and Postnatal Effects of Hexafluoropropylene Oxide Dimer Acid (GenX) from Oral Gestational Exposure in Sprague-Dawley Rats” (Environmental Health Perspectives, 2019)
